Data from patent US20240299542A1, “NATURAL KILLER CELLS ENGINEERED TO REDUCE OR ELIMINATE CBL-B AND USES THEREOF” (City of Hope, priority 2021, published 2024).

Test system: granzyme B
Test: Granzyme B protein in supernatants by ELISA
Format: cell-based, human
Procedure: FIGS. 3A-3E depict the results of a study showing that downregulation of Cbl-b enhances the cytotoxicity of primary human NK cells. (FIGS. 3A and 3B) Primary human NK cells transduced with Cbl-b siRNA or Scr siRNA for 24 h were stimulated without (FIG. 3A) or with (FIG. 3B) a low concentration of IL-15 (2 ng/ml) for 16 h, then co-cultured with ^51Cr labeled Molm-13, MV4-11 or EOL-1 leukemia cell lines for 4 h, followed by quantification of specific tumor cell lysis. Each experiment was repeated with 6 different normal donors. (FIG. 3C) qRT-PCR was performed to quantify the granzyme B (GZMB) mRNA levels (n=8 donors) in siRNA- and Scr siRNA-transduced primary human NK cells incubated without or with IL-15 (10 ng/ml) for 16 h. (FIG. 3D) The concentration of the granzyme B protein in the supernatants of Cbl-b siRNA- and Scr siRNA-transduced primary human NK cells incubated without (688.1 pg/ml vs 525.4 pg/ml; P=0.0232) or with IL-15 (10 ng/ml) for 24 h (8789 pg/ml vs 3397 pg/ml; P=0.0232) was measured by ELISA (n=8 donors). (FIG. 3E) The level of granzyme B protein in Cbl-b siRNA- and Scr siRNA-transduced primary human NK cells incubated without or with IL-15 (10 ng/ml) for 24 h was measured by immunoblot analysis. The data are representative of three experiments. Scr-scrambled; *P<0.05, **P<0.01, ***P<0.001, ****P<0.0001 by One-way or Two-way ANOVA; ns, not significant. Data presented as mean±SEM.
ELISA. Primary NK cells were plated in an equivalent number of 100,000 cells/well in a 96-well plate in RPMI and supplemented with 10% FBS. Cells were treated with recombinant human IL-15 (10 ng/ml) for 24 h, and cell-free culture supernatant was collected and frozen at −80° C. for later use. IFN-γ concentration was measured by ELISA using anti-IFN-γ antibody from Thermo Fisher Scientific. Granzyme B concentration was measured by ELISA kit purchased from R&D.
Both groups were next incubated without or with IL-15 and co-cultured with ^51Cr labeled MV4-11, Molm-13, or EOL-1 leukemia cell lines, followed by assessment of specific lysis measured after 4 h of co-culture.

Q: With “Cbl-b siRNA: Cbl-b-specific Accell siRNA (Dharmacon), SEQ ID NO:1, CCUUCAUGUUCAGAUGGUU (Accell modified siRNA, pattern not given here)” as the substance, how does the “concentration of granzyme B protein in supernatants” value (with IL-15 (10 ng/ml) 24 h, n=8 donors) read?
A: The value was 8789 pg/mL.

Q: And the “concentration of granzyme B protein in supernatants” value (without IL-15, n=8 donors)?
A: Its value is 688.1 pg/mL.
